Measured values: PubChem BioAssay AID651653 (NMMLSC, 2012)
Activity calls are given as the source filed them.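 The calls were made as follows: active = viability at the top tested dose under 50% of the solvent-only control; inactive = the rest.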

Tested on: not listed separately
Assay: cytotoxicity in ABCB6-expressing K562 cells, dose response, cytotoxicity control for ABCB6 inhibitor project, cell-based, CellTiter-Glo luminescence, cherry picks 01-02 (AID 651653)
Conditions: K562-ABCB6 viability, CellTiter-Glo luminescence, 18 h; at 100 µM (top of the series)
In the case of `CCCc1nnc(NC(=O)c2nc(S(=O)(=O)Cc3cccc(C)c3)ncc2Cl)s1`, the viability is reported as 65.4% (inactive).

Tested on: K562-ABCB6 viability, CellTiter-Glo luminescence, 18 h
Assay: as above
Conditions: not given
For `CCOC(=O)c1ccc(NC(=O)c2nc(S(=O)(=O)Cc3ccccc3)ncc2Cl)cc1`, the EC50 was 1.79 µM.
With `CCOc1ccccc1NC(=O)c1nc(S(=O)(=O)Cc2ccccc2)ncc1Cl` the EC50 was 11.8 µM.
Molecule `Cc1ccc(NC(=O)c2nc(S(=O)(=O)Cc3ccccc3)ncc2Cl)cc1` has an EC50 of 1.8 µM.
For `CCOc1ccccc1NC(=O)c1nc(S(=O)(=O)Cc2cccc(C)c2)ncc1Cl`, the EC50 was 1.43 µM.
`CC(=O)Nc1ccc(NC(=O)c2nc(S(=O)(=O)Cc3ccccc3)ncc2Cl)cc1` showed an EC50 of 1.19 µM.
Work on `O=C(Nc1ccc(F)cc1)c1nc(S(=O)(=O)Cc2ccccc2)ncc1Cl` yielded an EC50 of 1.54 µM.
`COC(=O)c1ccc(NC(=O)c2nc(S(=O)(=O)Cc3cccc(C)c3)ncc2Cl)cc1` showed an EC50 of 0.688 µM.
Molecule `Cc1ccc(CS(=O)(=O)c2ncc(Cl)c(C(=O)Nc3nnc(C(C)C)s3)n2)cc1` has an EC50 of 3.93 µM.
Molecule `CCN(CC)S(=O)(=O)c1cccc(-n2c(O)c(C=Nc3ccccc3C(=O)O)c3ccccc3c2=O)c1` has an EC50 of 13.1 µM.
`CCc1ccc(NC(=O)c2nc(S(=O)(=O)Cc3ccccc3)ncc2Cl)cc1` gave an EC50 of 1.62 µM.
For `CC(=O)Nc1ccc(NC(=O)c2nc(S(=O)(=O)Cc3cccc(C)c3)ncc2Cl)cc1`, the EC50 was 1.92 µM.
Molecule `Cc1nnc(NC(=O)c2nc(S(=O)(=O)Cc3ccccc3)ncc2Cl)s1` has an EC50 of 0.811 µM.
Molecule `Cc1cccc(CS(=O)(=O)c2ncc(Cl)c(C(=O)Nc3nnc(C(C)C)s3)n2)c1` has an EC50 of 6.52 µM.
`C[N+](C)(C)CC1CCCC(C[N+](C)(C)C)C1=O` (stereo not given) gave an EC50 of 0.245 µM.
`Cc1ccc(CS(=O)(=O)c2ncc(Cl)c(C(=O)Nc3ccc(OC(F)F)cc3)n2)cc1` gave an EC50 of 3.54 µM.
In the case of `Cc1cccc(CS(=O)(=O)c2ncc(Cl)c(C(=O)Nc3ccc(F)cc3)n2)c1`, the EC50 is reported as 1.52 µM.
Work on `Cc1ccccc1CS(=O)(=O)c1ncc(Cl)c(C(=O)Nc2ccc(F)cc2)n1` yielded an EC50 of 7.15 µM.
`Cc1cccc(C)c1NC(=O)c1nc(S(=O)(=O)Cc2ccccc2)ncc1Cl` gave an EC50 of 2.11 µM.
With `Cc1ccc(NC(=O)c2nc(S(=O)(=O)Cc3ccccc3C)ncc2Cl)cc1C` the EC50 was 1.45 µM.
